Experimental data as given in PubChem BioAssay (NCI).
“And” between values parts separate entries of the source, which are not always exact repeats. Equal entries are not always repeated.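 Briefly, cells in 96-well plates were exposed to five compound concentrations for 48 h, and endpoints were estimated by linear interpolation. GI50 = concentration required for 50% inhibition of growth. TGI is the concentration that stops growth completely.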

System: MOLT-4 leukemia
Assay: NCI-60 cell line screen, 48 h

Row | Structure (SMILES) | TGI [µM] | GI50 [µM]
1 | C=CCN1CCC23c4c5ccc(O)c4OC2C(=NN=C2CCC4(O)C6Cc7ccc(O)c8c7C4(CCN6CC=C)C2O8)CCC3(O)C1C5 (configuration not stated) | > 100 | –
2 | CN(C)CCNC(=O)c1cccc2c(Nc3ccc(S(=O)(=O)N=C(N)N)cc3)c3ccccc3nc12 | 6.83 | –
3 | COC(=O)C1=C(C(=O)OC)C2=S(SC3=C2CCCC3)S1 (configuration not stated) | > 100 | –
4 | O=C(Nc1ccc(Cl)c(C(F)(F)F)c1)c1ccc(NC2=C(Cl)C(=O)N(Cc3ccccc3)C2=O)cc1 | > 100 | 2.89
5 | COC(=O)c1ccc(-c2c(C#N)[n+](=O)c3cc(Cl)c(Cl)cc3n2[O-])cc1 | 2.96 | 1.18

System: SF-268 CNS
Assay: NCI-60 cell line screen, 48 h

Row | Structure (SMILES) | GI50 | TGI
6 | Cn1c(Nc2ccc(C(F)(F)F)cc2)nc2cc(Oc3ccnc(-c4ncc(C(F)(F)F)[nH]4)c3)ccc21 | 0.966 µM | 14.5 µM
7 | COc1ccc(-c2nsc3c2NC(=O)CC3c2cccc(OC)c2)cc1 (configuration not stated) | 4.53 µM | > 100 µM
8 | C[C@@]12CCC[C@@](C)(C(=O)O)C1CC[C@]13CC(=O)[C@](CO)(C1)[C@@H](O)CC32 (some centres not stated) | > 100 µM | > 100 µM
9 | O=[N+]([O-])c1ccc(CI)cc1 | 4.02 µM | 15.2 µM
10 | CN(C)C/C=C/C(=O)Nc1cc2c(Nc3ccc(F)c(Cl)c3)ncnc2cc1O[C@H]1CCOC1 | 2.03 µM and 1.82 µM | 8.58 µM and > 10 µM
11 | Cn1cnnc1Sc1c([N+](=O)[O-])ncn1C | – | > 100 µM
12 | C=CCC1(CN(C)C)CC/C(=C\c2ccc(Cl)cc2)C1=O (configuration not stated) | – | > 100 µM
13 | COc1cc(/C=C/C(=O)c2cccc(-n3cc(-c4ccc(Cl)cc4)[nH]c3=O)c2)ccc1O | 2.93 µM | 12.6 µM
14 | CC(=O)N1CCC(=O)/C(=C/c2ccccc2)C1 | – | 62.6 µM
15 | C[Si](C)(C)/C(Br)=C\CCN1C(=O)CCC1=O | – | > 100 µM
16 | CC1(Br)Cc2ccccc2C1=O (configuration not stated) | – | 20.2 µM
17 | CCOC(=O)/C=C/c1ccc(C#Cc2ccccc2)cc1 | > 100 µM | > 100 µM
18 | O=[P@@]1(c2ccccc2)O[C@H](COCc2ccccc2)[C@@H](OCc2ccccc2)[C@H](OCc2ccccc2)[C@H]1NCc1ccccc1 | 3.47 µM | > 100 µM
19 | O=C1c2cc3c(cc2-c2c1c1cc(Cl)c(Cl)cc1c(=O)n2C[C@H](O)CO)OCO3 | < 0.01 µM | 2.7 µM
20 | COc1ccc(/C(=C\C=C(C#N)C#N)Sc2nc3ccccc3s2)cc1 | 8.53 µM | 25.2 µM
21 | CC(C)(C)[Si](C)(C)OC1C(=O)C[C@H]2CCCC[C@@H]12 (some centres not stated) | – | > 100 µM

Row | Structure (SMILES) | GI50 | TGI
22 | CCN(CC)CCSc1c2ccccc2nc2c(OC)ccc(OC)c12 | – | 26.1 µM
23 | COc1cc(/C=C\c2cc(OC)c(OC)c(OC)c2)cc(N/C=C\C(=O)c2cc(OC)c(OC)c(OC)c2)c1OC | 6.04 µM | > 100 µM
24 | Clc1nc(Cl)nc(Nc2cccc3ccccc23)n1 | > 100 µM | > 100 µM
25 | CCOC(=O)c1ccc(N=Nc2cc(C(=O)OCC)ccc2O)cc1 | – | > 100 µM
26 | [N-]=[N+]=N/C1=C/CCCCC(=O)C1 | – | > 100 µM
27 | CN(C)c1ncnc2c1ncn2CCn1cnc2c(N(C)C)ncnc21 | – | > 100 µM
28 | Cc1cc(N(CCCNc2ccnc3cc(Cl)ccc23)Cc2ccc3c(c2)OCO3)nc(N2CCOCC2)n1 | 0.304 µM | 24.7 µM
29 | CCOC(=O)C1SC(=Nc2ccccc2)N=C1C (configuration not stated) | – | > 100 µM
30 | C=CCN1CCC23c4c5ccc(O)c4OC2C(=NN=C2CCC4(O)C6Cc7ccc(O)c8c7C4(CCN6CC=C)C2O8)CCC3(O)C1C5 (configuration not stated) | – | > 100 µM
31 | CN1CC[C@@H](c2c(O)cc(O)c3c(=O)cc(-c4ccc(C(F)(F)F)cc4Cl)oc23)[C@@H]1CO | 15.2 µM | 39.6 µM
32 | CN(C)CCNC(=O)c1cccc2c(Nc3ccc(S(=O)(=O)N=C(N)N)cc3)c3ccccc3nc12 | – | 26.6 µM
33 | COC(=O)C1=C(C(=O)OC)C2=S(SC3=C2CCCC3)S1 (configuration not stated) | – | > 100 µM
34 | O=C(Nc1ccc(Cl)c(C(F)(F)F)c1)c1ccc(NC2=C(Cl)C(=O)N(Cc3ccccc3)C2=O)cc1 | 2.76 µM | 9.02 µM
35 | COC(=O)c1ccc(-c2c(C#N)[n+](=O)c3cc(Cl)c(Cl)cc3n2[O-])cc1 | 16.4 µM | 32.1 µM
36 | Cn1cc(-c2csc(-c3c[nH]c4ccc(Br)cc34)n2)c2cnccc21 | 2.83 µM | 7.96 µM
37 | COc1ccc(Cn2c(N)c(S(=O)(=O)c3ccc(Cl)cc3)c3nc(C#N)c(C#N)nc32)cc1 | 9.25 µM | 42.3 µM
